Test results taken from patent US20070128217A1 (priority 2003, published 2007).

How the values were obtained:
[1] = test system: control sera (pooled serum of ten healthy LUMC hospital workers; commercial negative donor pooled serum from the Dutch bloodbank); type: binding, human; set-up: Binding of Control serum LUMC to linear peptides / Binding of Control serum Blood-bank to linear peptides / Binding of Control serum LUMC to looped peptides / Binding of Control Serum Blood-Bank to Looped peptides / Binding of Control serum LUMC to linear peptides of the protein M of SARS-CoV Urbani / Binding of Control serum Blood-bank to linear peptides of the protein M of SARS-CoV Urbani / Binding of Control serum LUMC to looped peptides of the protein M of SARS-CoV Urbani / Binding of Control Serum Blood-Bank to Looped peptides of the protein M of SARS-CoV Urbani: unit not given here
[2] = test system: rabbit serum obtained by immunizing a rabbit with the SARS-CoV strain Frankfurt 1; type: binding; set-up: Binding of a rabbit serum to linear peptides / Binding of a rabbit serum to looped peptides / Rabbit serum linear peptides / Rabbit serum looped peptides / Binding of a rabbit serum to linear peptides of protein N of SARS-CoV Urbani (Rabbit serum linear peptides) / Binding of a rabbit serum to looped/cyclic peptides of protein N of SARS-CoV Urbani (Rabbit serum looped peptides): unit not given here
[3] = test system: recombinant human anti-SARS-CoV antibody 03-018; type: binding; set-up: Binding of antibody 03-018 to linear peptides of the N protein of SARS-CoV Urbani / Binding of antibody 03-018 to looped/cyclic peptides of the N protein of SARS-CoV Urbani: unit not given here
[4] = test system: antibodies in sera from SARS patients (sera 1a, 1b, 2, 6, 37, 62, London, SARS-yellow, SARS-green); type: binding, human; set-up: Binding of serum 6 to linear peptides of protein X1 of SARS-CoV Urbani / Binding of serum 37 to linear peptides of protein X1 of SARS-CoV Urbani / Binding of serum 6 to looped/cyclic peptide (PEPSCAN-ELISA) / Binding of serum 37 to looped/cyclic peptide (PEPSCAN-ELISA) / Binding of serum 37 to looped/cyclic peptides of protein X1 of SARS-CoV Urbani / Binding of serum 6 to linear peptides of protein X2 / Binding of serum 37 to linear peptides of protein X2 / Binding of serum 37 to looped/cyclic peptides of protein X2 of SARS-CoV Urbani / Binding of serum 6 to linear peptides of protein M of SARS-CoV Urbani / Binding of serum 37 to linear peptides of protein M of SARS-CoV Urbani / Binding of serum 6 to looped/cyclic peptides of protein M of SARS-CoV Urbani / Binding of serum 37 to looped/cyclic peptides of protein M of SARS-CoV Urbani / Binding of serum 6 to linear peptides of protein X3 of SARS-CoV Urbani / Binding of serum 37 to linear peptides of protein X3 of SARS-CoV Urbani / Binding of serum 37 to looped/cyclic peptides of protein X3 of SARS-CoV Urbani / Binding of serum 6 to linear peptides of protein X4 of SARS-CoV Urbani / Binding of serum 37 to linear peptides of protein X4 of SARS-CoV Urbani / Binding of serum 37 to looped/cyclic peptides of protein X4 of SARS-CoV Urbani / Binding of serum 6 to linear peptides of protein X5 of SARS-CoV Urbani / Binding of serum 37 to linear peptides of protein X5 of SARS-CoV Urbani / Binding of serum 37 to looped/cyclic peptides of protein X5 of SARS-CoV Urbani / Binding of serum 6 to linear peptides of protein N of SARS-CoV Urbani / Binding of serum 37 to linear peptides of protein N of SARS-CoV Urbani / Binding of serum 6 to linear peptide (PEPSCAN-ELISA) / Binding of serum 1a to looped/cyclic peptides of protein N of SARS-CoV Urbani / Binding of serum 1b to looped/cyclic peptides of protein N of SARS-CoV Urbani / Binding of serum 2 to looped/cyclic peptides of protein N of SARS-CoV Urbani / Binding of serum 6 to looped/cyclic peptides of protein N of SARS-CoV Urbani / Binding of serum 37 to looped/cyclic peptides of protein N of SARS-CoV Urbani / Binding of serum 62 to looped/cyclic peptides of protein N of SARS-CoV Urbani / Binding of serum London to looped/cyclic peptides of protein N of SARS-CoV Urbani / Binding of serum SARS-green to looped/cyclic peptides of protein N of SARS-CoV Urbani: unit not given here

Sequence	Binding of Control Serum Blood-Bank to Looped peptides [1]	Binding of Control serum Blood-bank to linear peptides [1]	Binding of Control serum LUMC to linear peptides [1]	Binding of Control serum LUMC to looped peptides [1]	Binding of antibody 03-018 to linear peptides of the N protein of SARS-CoV Urbani [3]	Binding of antibody 03-018 to looped/cyclic peptides of the N protein of SARS-CoV Urbani [3]	Binding of serum 1a to linear peptide (PEPSCAN-ELISA) [4]	Binding of serum 1a to looped/cyclic peptides of protein N of SARS-CoV Urbani [4]	Binding of serum 1b to linear peptide (PEPSCAN-ELISA) [4]	Binding of serum 1b to looped/cyclic peptides of protein N of SARS-CoV Urbani [4]	Binding of serum 2 to linear peptide (PEPSCAN-ELISA) [4]	Binding of serum 2 to looped/cyclic peptides of protein N of SARS-CoV Urbani [4]	Binding of serum 6 to looped/cyclic peptides of protein N of SARS-CoV Urbani [4]	Binding of serum 37 to looped/cyclic peptides of protein N of SARS-CoV Urbani [4]	Binding of serum 62 to looped/cyclic peptides of protein N of SARS-CoV Urbani [4]	Binding of serum London to looped/cyclic peptides of protein N of SARS-CoV Urbani [4]	Binding of serum SARS-green to looped/cyclic peptides of protein N of SARS-CoV Urbani [4]	Binding of serum SARS-yellow to looped/cyclic peptides of protein N of SARS-CoV Urbani [4]	Binding of a rabbit serum to linear peptides of protein N of SARS-CoV Urbani (Rabbit serum linear peptides) [2]	Binding of a rabbit serum to looped/cyclic peptides of protein N of SARS-CoV Urbani (Rabbit serum looped peptides) [2]	also measured
KQYNVTQAFGRRGPE	0.5	0.6	0.7	0.5	0.1	0.1	0.3	0.0	0.1	0.0	0.1	0.1	0.2	0.0	0.0	0.2	0.4	0.0	–	–	Recognition of the peptide by the rabbit serum [2]: recognized; Binding of serum 6 to linear peptide (PEPSCAN-ELISA) [4]: 0.2; Binding of serum 37 to linear peptide (PEPSCAN-ELISA) [4]: 0.6; Binding of serum 62 to linear peptide (PEPSCAN-ELISA) [4]: 0.7; Binding of serum London to linear peptide (PEPSCAN-ELISA) [4]: 0.5; Binding of serum SARS-green to linear peptide (PEPSCAN-ELISA) [4]: 0.3; Binding of serum SARS-yellow to linear peptide (PEPSCAN-ELISA) [4]: 0.6
KSAAEASKKPRQKRT	0.4	0.7	0.7	0.4	0.1	0.1	–	0.2	–	0.1	–	0.2	0.1	0.4	0.2	0.3	0.1	0.1	0.1	0.2	Recognition of the peptide by sera of SARS-CoV infected individuals, and form (linear, looped/cyclic) in which it is recognized [4]: recognized in linear form
KTFPPTEPKKDKKKK	–	–	–	–	0.1	0.2	–	0.2	–	0.1	–	0.2	0.0	0.4	0.2	0.2	0.0	0.2	0.1	0.1	Control Serum Blood-Bank Looped peptides [1]: 0.3; Control serum Blood-bank linear peptides [1]: 0.6; Control serum LUMC linear peptides [1]: 0.7; Control serum LUMC looped peptides [1]: 0.3; Binding of serum 1a to linear peptides of protein N of SARS-CoV Urbani [4]: 0.2; Binding of serum 1b to linear peptides of protein N of SARS-CoV Urbani [4]: 0.1; Binding of serum 2 to linear peptides of protein N of SARS-CoV Urbani [4]: 0.4; Binding of serum 6 to linear peptides of protein N of SARS-CoV Urbani [4]: 0.2; Binding of serum 37 to linear peptides of protein N of SARS-CoV Urbani [4]: 0.8; Binding of serum 62 to linear peptides of protein N of SARS-CoV Urbani [4]: 0.6; Binding of serum London to linear peptides of protein N of SARS-CoV Urbani [4]: 0.4; Binding of serum SARS-green to linear peptides of protein N of SARS-CoV Urbani [4]: 0.1; Binding of serum SARS-yellow to linear peptides of protein N of SARS-CoV Urbani [4]: 0.8
LDRLNQLESKVSGKG	0.5	1.0	0.8	0.5	0.1	0.2	0.3	0.4	0.2	0.3	0.3	0.4	0.3	0.4	0.4	0.4	0.2	0.3	0.0	0.4	Binding of serum 6 to linear peptide (PEPSCAN-ELISA) [4]: 0.3; Binding of serum 37 to linear peptide (PEPSCAN-ELISA) [4]: 0.5; Binding of serum 62 to linear peptide (PEPSCAN-ELISA) [4]: 0.6; Binding of serum London to linear peptide (PEPSCAN-ELISA) [4]: 0.5; Binding of serum SARS-green to linear peptide (PEPSCAN-ELISA) [4]: 0.8; Binding of serum SARS-yellow to linear peptide (PEPSCAN-ELISA) [4]: 0.7
